Laboratory results reported in patent US20030050306A1, “Novel heteroaryl derivatives, their preparation and use” (H. Lundbeck A/S, priority 1999, published 2003).
Counter-ions that a name gives are not always drawn.

How the values were obtained:
[1] = molecular target: T1, cloned human 5-HT1A receptors (Homo sapiens, UniProt P08908); assay: Inhibition of 3H-5-CT binding to human 5-HT1A receptors; conditions: cloned human 5-HT1A receptors in HeLa cells (HA7); for inhibition at 0.1 µM: at 100 nM
T1 construct: expressed in transfected cells; host or cells: HeLa cells (HA7)
T1 sequence (P08908 1-422): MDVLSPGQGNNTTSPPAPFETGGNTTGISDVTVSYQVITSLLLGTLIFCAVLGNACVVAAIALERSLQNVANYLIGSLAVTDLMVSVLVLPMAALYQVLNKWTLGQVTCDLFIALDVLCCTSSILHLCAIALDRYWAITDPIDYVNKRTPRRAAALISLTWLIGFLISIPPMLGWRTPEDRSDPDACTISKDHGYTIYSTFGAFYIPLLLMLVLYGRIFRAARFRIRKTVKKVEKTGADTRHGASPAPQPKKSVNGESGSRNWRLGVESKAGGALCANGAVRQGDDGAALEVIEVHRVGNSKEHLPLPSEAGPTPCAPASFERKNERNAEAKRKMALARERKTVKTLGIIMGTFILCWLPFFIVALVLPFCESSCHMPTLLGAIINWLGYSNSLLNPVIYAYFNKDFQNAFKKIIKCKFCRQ
Method in brief: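 Cloned human 5-HT1A receptors stably expressed in transfected HeLa cells (HA7); 40 μg cell homogenate incubated 15 min at 37° C in 50 mM Tris pH 7.7 with 3H-5-CT. Non-specific binding defined with 10 μM metergoline; bound radioligand separated by rapid GF/B filtration and counted.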

[2] = molecular target: T2, human cloned dopamine D4.2 receptors (Homo sapiens, UniProt P21917, DEL265-296); assay: Inhibition of the binding of 3H-YM-09151-2 to human dopamine D4 receptors; conditions: at 50 nM; human cloned dopamine D4.2 receptors in CHO-cells
T2 construct: expressed in transfected cells; host or cells: CHO cells
T2 sequence (P21917 with tags, fused parts or gaps DEL265-296): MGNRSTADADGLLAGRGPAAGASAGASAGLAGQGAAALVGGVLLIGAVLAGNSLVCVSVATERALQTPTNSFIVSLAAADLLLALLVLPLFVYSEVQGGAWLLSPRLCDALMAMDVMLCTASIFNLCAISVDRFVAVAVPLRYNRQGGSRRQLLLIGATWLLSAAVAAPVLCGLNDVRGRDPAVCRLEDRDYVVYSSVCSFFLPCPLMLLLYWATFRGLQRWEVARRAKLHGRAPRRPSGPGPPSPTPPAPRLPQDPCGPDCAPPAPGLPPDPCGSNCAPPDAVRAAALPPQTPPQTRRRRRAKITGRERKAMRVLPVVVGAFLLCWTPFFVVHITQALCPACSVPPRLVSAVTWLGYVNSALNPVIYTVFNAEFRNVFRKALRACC
Method in brief: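 Radioligand displacement of [3H]YM-09151-2 (0.06 nM) from membranes of CHO cells expressing cloned human D4.2 receptors, measured in vitro.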

melting point [°C]	inhibition at 0.1 µM [1] [%]	inhibition at 0.05 µM [2] [%]	IC50 [1] [nM]	SMILES
210 to 220				Fc1cc(F)c(OCCCN2CCN(c3cccc4c3OCCO4)CC2)c(F)c1 (as salt: hydrochloride) [Compound 1c, 1-(2,3-Dihydro-benzo[1,4]dioxin-5-yl)-4-[3-(2,4,6-trifluoro-phenoxy)-propyl]-piperazine]
216 to 219				Fc1ccc(SCCCN2CCN(c3cccc4ccsc34)CC2)c(Cl)c1 (as salt: hydrochloride) [Compound 2e, 1-Benzo[b]thiophen-7-yl-4-[3-(2-chloro-4-fluoro-phenylsulfanyl)-propyl]-piperazine]
193 to 195				Fc1ccc(OCCCCN2CCN(c3cccc4ccsc34)CC2)c(Cl)c1 (as salt: hydrochloride) [Compound 2f, 1-Benzo[b]thiophen-7-yl-4-[4-(2-chloro-4-fluoro-phenoxy)-butyl]-piperazine]
179 to 181				Clc1cccc(Cl)c1OCCCN1CCN(c2cccc3c2OCCO3)CC1 (as salt: oxalate) [Compound 1b, 1-[3-(2,6-Dichloro-phenoxy)-propyl]-4-(2,3-dihydro-benzo[1,4]dioxin-5-yl)-piperazine]
141 to 142				COc1cc(F)ccc1OCCCN1CCN(c2cccc3c2OCCO3)CC1 (as salt: oxalate) [Compound 1d, 1-(2,3-Dihydro-benzo[1,4]dioxin-5-yl)-4-[3-(4-fluoro-2-methoxy-phenoxy)-propyl]-piperazine]
139 to 150				Cc1cc(F)ccc1OCCCN1CCN(c2cccc3c2OCCO3)CC1 (as salt: oxalate) [Compound 1e, 1-(2,3-Dihydro-benzo[1,4]dioxin-5-yl)-4-[3-(4-fluoro-2-methyl-phenoxy)-propyl]-piperazine]
148 to 150				FC(F)(F)c1ccc(OCCCN2CCN(c3cccc4c3OCCO4)CC2)cc1 (as salt: oxalate) [Compound 2b, 1-(2,3-Dihydro-benzo[1,4]dioxin-5-yl)-4-[3-(4-trifluoromethyl-phenoxy)-propyl]-piperazine]
167 to 169				Fc1ccccc1OCCCN1CCN(c2cccc3c2OCCO3)CC1 (as salt: oxalate) [Compound 2c, 1-(2,3-Dihydro-benzo[1,4]dioxin-5-yl)-4-[3-(2-fluoro-phenoxy)-propyl]-piperazine]
200 to 202				Fc1ccc(SCCN2CCN(c3cccc4c3OCCO4)CC2)cc1 (as salt: oxalate) [Compound 3b, 1-(2,3-Dihydro-benzo[1,4]dioxin-5-yl)-4-[2-(4-fluoro-phenylsulfanyl)-ethyl]-piperazine]
	74	92		Fc1ccccc1SCCN1CCN(c2cccc3c2OCCO3)CC1 [Compound 7aw, 1-(2,3-Dihydro-benzo[1,4]dioxin-5-yl)-4-[2-(2-fluoro-phenylsulfanyl)-ethyl]-piperazine]
		100	9.2	CCc1ccccc1SCCCN1CCN(c2cccc3c2OCCO3)CC1 [Compound 7ax, 1-(2,3-Dihydro-benzo[1,4]dioxin-5-yl)-4-[3-(2-ethyl-phenylsulfanyl)-propyl]-piperazine]
		102	2	Clc1ccc(Cl)c(SCCCN2CCN(c3cccc4c3OCCO4)CC2)c1 [Compound 7ay, 1-[3-(2,5-Dichloro-phenylsulfanyl)-propyl]-4-(2,3-dihydro-benzo[1,4]dioxin-5-yl)-piperazine]
	100	92		Clc1cccc(SCCCN2CCN(c3cccc4c3OCCO4)CC2)c1 [Compound 7az, 1-[3-(3-Chloro-phenylsulfanyl)-propyl]-4-(2,3-dihydro-benzo[1,4]dioxin-5-yl)-piperazine]
	97	84		Fc1ccccc1SCCCN1CCN(c2cccc3c2OCCO3)CC1 [Compound 7ba, 1-(2,3-Dihydro-benzo[1,4]dioxin-5-yl)-4-[3-(2-fluoro-phenylsulfanyl)-propyl]-piperazine]
	82	96		Cc1ccccc1SCCCCN1CCN(c2cccc3c2OCCO3)CC1 [Compound 7bc, 1-(2,3-Dihydro-benzo[1,4]dioxin-5-yl)-4-(4-o-tolylsulfanyl-butyl)-piperazine]
	84	102		Clc1ccc(Cl)c(SCCCCN2CCN(c3cccc4c3OCCO4)CC2)c1 [Compound 7bd, 1-[4-(2,5-Dichloro-phenylsulfanyl)-butyl]-4-(2,3-dihydro-benzo[1,4]dioxin-5-yl)-piperazine]
	102	102		Clc1ccccc1SCCCCN1CCN(c2cccc3c2OCCO3)CC1 [Compound 7be, 1-[4-(2-Chloro-phenylsulfanyl)-butyl]-4-(2,3-dihydro-benzo[1,4]dioxin-5-yl)-piperazine]
	101	91		Fc1ccccc1SCCCCN1CCN(c2cccc3c2OCCO3)CC1 [Compound 7bf, 1-(2,3-Dihydro-benzo[1,4]dioxin-5-yl)-4-[4-(2-fluoro-phenylsulfanyl)-butyl]-piperazine]
	81	64		COc1ccc(SCCN2CCN(c3cccc4c3OCCO4)CC2)cc1OC [Compound 7bg, 1-(2,3-Dihydro-benzo[1,4]dioxin-5-yl)-4-[2-(3,4-dimethoxy-phenylsulfanyl)-ethyl]-piperazine]
	96	101		Fc1ccc(SCCCCN2CCN(c3cccc4c3OCCO4)CC2)c(Cl)c1 [Compound 7bi, 1-[4-(2-Chloro-4-fluoro-phenylsulfanyl)-butyl]-4-(2,3-dihydrobenzo[1,4]dioxin-5-yl)-piperazine]
	106	92		FC(F)(F)Oc1ccc(SCCCN2CCN(c3cccc4c3OCCO4)CC2)cc1 [Compound 7bj, 1-(2,3-Dihydro-benzo[1,4]dioxin-5-yl)-4-[3-(4-trifluoromethoxy-phenylsulfanyl)-propyl]-piperazine]
	91	84		COc1ccc(OC)c(SCCCN2CCN(c3cccc4c3OCCO4)CC2)c1 [Compound 7bk, 1-(2,3-Dihydro-benzo[1,4]dioxin-5-yl)-4-[3-(2,5-dimethoxy-phenylsulfanyl)-propyl]-piperazine]
	95	102		Brc1cccc(SCCCN2CCN(c3cccc4c3OCCO4)CC2)c1 [Compound 7bl, 1-(2,3-Dihydro-benzo[1,4]dioxin-5-yl)-4-[3-(3-bromo-phenylsulfanyl)-propyl]-piperazine]
	95	83		COc1ccccc1SCCCCN1CCN(c2cccc3c2OCCO3)CC1 [Compound 7bm, 1-(2,3-Dihydro-benzo[1,4]dioxin-5-yl)-4-[4-(2-methoxy-phenylsulfanyl)-butyl]-piperazine]
	93	93		CC(C)c1ccccc1SCCCCN1CCN(c2cccc3c2OCCO3)CC1 [Compound 7bn, 1-(2,3-Dihydro-benzo[1,4]dioxin-5-yl)-4-[4-(2-isopropyl-phenylsulfanyl)-butyl]-piperazine]
	91	102		Cc1ccccc1SCCN1CCN(c2cccc3c2OCCO3)CC1 [Compound 7bo, 1-(2,3-Dihydro-benzo[1,4]dioxin-5-yl)-4-(2-o-tolylsulfanyl-ethyl)-piperazine]
	92	99		C=CCc1ccccc1OCCCCN1CCN(c2cccc3c2OCCO3)CC1 [Compound 7bp, 1-[4-(2-Allyl-phenoxy)-butyl]-4-(2,3-dihydro-benzo[1,4]dioxin-5-yl)-piperazine]

SMILES	melting point [°C]	inhibition at 0.1 µM [1] [%]	inhibition at 0.05 µM [2] [%]	IC50 [1] [nM]
N#Cc1ccc(OCCCCN2CCN(c3cccc4c3OCCO4)CC2)c(Cl)c1 [Compound 7bb, 3-Chloro-4-{4-[4-(2,3-dihydro-benzo[1,4]dioxin-5-yl)-piperazin-1-yl]-butoxy}-benzonitrile]		101	94	
N#Cc1cccc(OCCCCN2CCN(c3cccc4c3OCCO4)CC2)c1 [Compound 7bh, 3-{4-[4-(2,3-Dihydro-benzo[1,4]dioxin-5-yl)-piperazin-1-yl]-butoxy}-benzonitrile]		95	84	
